# Test results taken from ChEMBL document CHEMBL3507680, “University of Dundee, Gates Library screen for HepG2 cell viability”.
# Test: Human HepG2 cell viability assay in 384 well format
# Assay type: toxicity, cell-based
# Parameters: dose 125 nL, time 70.5 hour; cytotoxicity at 70.5 h: concentration not given beside the values
# Conditions: HepG2 cells, read-out: Inhibition
row,Structure (SMILES),cytotoxicity at 70.5 h
1,CC(CS(C)(=O)=O)NC(=O)N1CC2(CCCC2)c2ccccc21 (configuration not stated),-2.3%
2,NC(=O)c1ccc(NC(=O)c2ccncc2F)cn1,10.3%
3,CC(C)NC(=O)N1CCC[C@H]1C(=O)NCCCc1cnn(C)c1,-4.04%
4,O=C(NCC1(c2cccs2)CCCCC1)N1CCOC(CO)C1 (configuration not stated),-1.73%
5,Cc1ccc(C(C)(O)CNC(=O)CCn2ccnc2C(C)C)o1 (configuration not stated),-2.97%
6,CC(=O)N1CCCN(C(=O)NCC2(c3cccs3)CCCC2)CC1,-4.55%
7,CCN(CCCc1ccccc1C)S(C)(=O)=O,-3.45%
8,O=C(Nc1ccccc1)C1CCCN(C(=O)Cn2cncn2)C1 (configuration not stated),-0.859%
9,Cc1csc(N(C)C(=O)C2CC(=O)N(CCc3ccccc3)C2)n1 (configuration not stated),4.67%
10,Cc1csc(N(C)C(=O)C2CC(=O)N(c3ccccc3F)C2)n1 (configuration not stated),-0.144%
11,COCCn1cc(NC(=O)NC(C)c2ccc(Cl)s2)cn1 (configuration not stated),-3.34%
12,COc1ncccc1NC(=O)N1CCOCC1C (configuration not stated),4.15%
13,CCOc1cccc2c1OCC(C(=O)NC(C)Cn1cccn1)=C2 (configuration not stated),16.6%
14,COc1ccc(Oc2ncccc2NC(=O)N2CCOCC2C)cc1 (configuration not stated),-1.92%
15,COc1ccc(Oc2ncccc2NC(=O)N2CC[C@H](O)C2)cc1,-1.8%
16,Cc1cc(C(=O)N2CCCC2CN2CCCC2)no1 (configuration not stated),12.9%
17,COC(=O)C(CNC(=O)Nc1cn[nH]c1)Cc1cccc(C)c1 (configuration not stated),-0.383%
18,Cc1ccc(CN(CC(=O)NC2CCOCC2)c2ccc(F)cc2)o1,1.79%
19,CC(Nc1nc2c(cnn2C)c(=O)[nH]1)c1ccccn1 (configuration not stated),13%
20,COc1ccc(NC(=O)N2CCC(c3noc(C)n3)CC2)cc1C,1.97%
21,Cc1cc(NC(N)=O)ccc1OCC(F)(F)F,-2.1%
22,CC(Cn1cncn1)NC(=O)NCC(C)(C)c1ccc(F)cc1 (configuration not stated),1.47%
23,CCn1nc2c(cc1=O)CN(Cc1nc(-c3ccoc3)no1)CC2,19.1%
24,CN(C(=O)c1ccncc1)c1ccccc1S(C)(=O)=O,-2.3%

row,Structure (SMILES),cytotoxicity at 70.5 h
1,COc1ccc(NC(=O)N2CCC(c3nnc[nH]3)CC2)cc1C,-3.69%
2,CCOc1ncccc1NC(=O)N1CCOCC1C (configuration not stated),-5.63%
3,Cc1cc(CN(C)C(=O)NC(C)Cc2ccco2)no1 (configuration not stated),-3.4%
4,CN(C)CCN(Cc1cccnc1)C(=O)c1ccn(-c2ccccc2)n1,-3.54%
5,CCc1noc(C(C)N(C)Cc2cc(Br)ccc2OC)n1 (configuration not stated),-15.2%
6,CCCC(NC(=O)c1ccc(C)cc1C)c1nnn[nH]1 (configuration not stated),0.32%
7,CCCC(NC(=O)c1cc(C)c(F)cc1F)c1nnn[nH]1 (configuration not stated),-2.37%
8,CCC1CCCCN1CCNC(=O)N1CCN(Cc2ccon2)CC1 (configuration not stated),-2.53%
9,CN1CCC(CCNC(=O)N2CCN(Cc3ccon3)CC2)CC1,14.9%
10,COc1ccc(CNC(C)c2ccc(Cl)cc2)c(OC)c1OC (configuration not stated),13.3%
11,CCCC(NC(=O)c1cc(C)ccc1O)c1nnn[nH]1 (configuration not stated),-10.4%
12,CCC(C)Sc1nncn1-c1ccc(OC)nc1 (configuration not stated),5.95%
13,COc1ccc(CNC(C)c2ccc(Cl)c(Cl)c2)c(OC)c1OC (configuration not stated),5.68%
14,CCOCCCNC(=O)Cc1cccc(F)c1,1.71%
15,O=C(NCCNS(=O)(=O)c1ccc2c(c1)CCC2)c1ccccc1,-1.96%
16,Cc1ccc(-c2cnc(CCC(=O)NCCN3CCOCC3)o2)cc1C,2.52%
17,O=C(C1CC(=O)N(c2ccccc2Br)C1)N1CCCCCC1 (configuration not stated),11.2%
18,CC(C)(C)OC(=O)NC(C)(C)c1noc(CSc2nncs2)n1,25.7%
19,CCS(=O)(=O)c1ccc(N2CCC(NC(=O)CC3CCCC3)CC2)cc1,-9.91%
20,Cn1c(C(=O)N2CCC(C3OCCO3)CC2)c(Cl)c2ccccc21,-9.46%
21,COc1cc(CNC(=O)C(C)SC)cc(Br)c1OC (configuration not stated),-8.14%
22,COc1ccc(NC(=O)Cc2c(C)nc3c(c2C)c(=O)[nH]n3C)cn1,-4.63%
23,CCC(C)C(=O)NCc1cc(Br)c(OC)c(OC)c1 (configuration not stated),-6.76%
